Data published in patent publication US20190314312A1, “COMBINATION THERAPY TO INCREASE ENDOGENOUS NITRIC OXIDE (NO) SYNTHESIS” (Yeda Research and Development Co. Ltd., priority 2016, published 2019).
“Also recorded” adds a separate entry of the source.

Assays:
Format in all cases: in vivo, mouse
As1 = assay: Immunohistochemistry staining of distal colon sections for As1; details: after colitis induction, vs control mice with colitis; FIG. 3E, 4A
Method: Four micrometer paraffin embedded tissue sections were deparaffinized and rehydrated. Endogenous peroxidase was blocked with three percent H2O2 in methanol. Sections undergoing for ALS staining were incubated in cold acetone at −20° C. for 7 minutes. For F4/80 and MAC-2 staining, the present inventors performed antigen retrieval in Tris-EDTA pH 9 and 10 mM citric acid pH 6, for 10 minutes, respectively, using a low boiling program in the microwave to break protein cross-links and unmask antigens. After pre-incubation with 20% normal horse serum and 0.2% Triton X-100 for 1 hour at RT (root temperature), sections were incubated with the primary antibodies as follow; ASL (1:100, Abcam, ab97370, CA, USA); F4/80 (1:50, Serotec, Kidllington, UK); Mac-2 (1:400, Cedarlane, N.C., USA). For fluorescent double-staining of ASL and CD11c the mouse anti ASL (1:50 Santa Cruz Biotechnology, Inc. sc-166787, TX, USA) and rabbit anti CD11c (1:50, ab52632) were used. All antibodies were diluted in PBS containing 2% normal horse serum and 0.2% Triton. Sections were incubated overnight at RT followed by 48 hours at 4° C. Sections were washed three times in PBS and incubated with secondary biotinylated IgG at RT (room temperature) for 1.5 hour, washed three times in PBS and incubated with avidin-biotin Complex (Elite-ABC kit, Vector Lab, CA, USA) at RT for additional 90 minutes followed by DAB (Sigma) reaction. For the fluorescent staining the CY2 conjugated anti mouse and CY3 conjugated streptavidin (1:100 and 1:200 respectively, Jackson ImmunoResearch, West Grove, Pa.) were used.

enterocytes = assay: FACS analysis of colon epithelial cells (enterocytes) after colitis induction
Method: Colon segment was flushed with cold PBS, longitudinally cut open and rinsed to remove residual luminal contents. Tissue was cut into 3- to 5-mm pieces and incubated in HBSS medium containing EDTA 0.5 M and Hepes 10 mM at 37° C. for 20 minutes, shaken at 180 rpm, to separate epithelial fraction. Supernatant was centrifuged at 4° C. at 500 g for 10 minutes. Recovered tissue was digested in HBSS medium with 2% fetal bovine serum (FBS), 0.05% collagenase II and 0.05% DNase I (Sigma) for 40 minutes. at 37° C., shaken at 180 rpm. LP cells were filtered through 65 μm mesh and centrifuged at 4° C. at 500 g for 10 minutes. The present inventors prepared single cell suspensions from mouse colon by enzymatic digestion and analyzed by polychromatic flow cytometry. Samples were stained with conjugated antibodies or matching isotype controls according to manufacturer's instructions. Data were acquired on an LSRII (BD Biosciences) or FACSCalibur instrument (Becton-Dickinson) with CellQuest software, with a MacsQuant instrument (Miltenyi, Bergisch Gladbach, Germany), and analyzed using BD FACSDiva 6 or FlowJo software (version 7.6.5, or version vX.0.7 Tree Star Inc) or MacsQuant. Colon cells were stained for 30 min at 4° C. in flow cytometry buffer (PBS, 10% FCS and 0.02% azide). For antigens that require intracellular staining (As1, iNOS and S-nitrosocystein), cell surface staining was followed by cell fixation and permeabilization with the Cytofix/Cytoperm kit (BD Biosciences) according to the manufacturer's instructions. For staining, the present inventors used a lineage cocktail of antibodies anti-CD45-APC, Anti-CD64-PE, Anti-CD11c-PB, Anti-326-APC cy7, Anti CD31-PE cy7 (all from BioLegend). After staining for cell surface antigens, intracellular NO was detected by incubation of cells for 15 min at 37° C. with 10 μM DAF-FM diacetate followed by extensive washing, according to the manufacturer's instructions (Molecular Probes). Staining without addition of the DAF-FM probe was considered to be the baseline for gating the positive population. As1 was detected using anti-As1-ALEXA FLUOR® 488 (BD Biosciences), iNOS using anti-iNOS followed by anti-rat 488 (Jackson ImmunoResearch), and nitrosylation using anti-S-nitrosocystein (from abcam) followed by anti-mouse 488 (Jackson ImmunoResearch).

intestine = assay: Tunnel staining of intestine (apoptosis); details: colitis mice, citrulline vs control; FIGS. 3F-H
Method: Tunnel staining was performed by using ApopTag kit detection according to manufacturer's instructions (Millipore, CA, USA). Stained sections were examined and photographed by a fluorescence or bright field microscope (Eclipse Ni-U; Nikon, Tokyo, Japan) equipped with Plan Fluor objectives (10; 20×; 40×) connected to a monochrome camera (DS-Qi1, Nikon).

C57BL/6J.OlaaHsd mice [1] = assay: DSS-induced colitis, treatment with arginine, citrulline, NaNO2, fisetin or citrulline plus fisetin; details: for weight loss: 1% DSS 6 days; for Histology score for colitis: FIG. 3D; for clinical improvement in colitis severity: evaluated by change in weight, histological score and colon length, vs control
Method: Colitis was induced in Vav1^Cre:As1^f/f mice and CD11c^Cre:As1^f/f with 1.5% DSS and with 0.8% DSS in the Villin^Cre:As1^f/f (wt/vol), (Dextran Sodium Sulfate, MP Biomedicals; molecular weight 36,000-50,000 Da). The powder was dissolved in the drinking water for 6 days, followed by 5 days of supplementing regular water^20. Each group consisted of eight to ten, 8-10 weeks old, male mice. Experiments were repeated at least three times. “f/f”—flox/flox.
Colonoscopy was performed on days 7 and 11 of the experiment to monitor for severity of colitis. For the procedure, a high resolution mouse video endoscopic system was used, which consists of a miniature endoscope (scope 1.9 mm outer diameter), a xenon light source, a triple chip camera, and an air pump to achieve regulated inflation of the mouse bowel (Karl Storz, Tuttlingen, Germany). Mice were anesthetized by the administration of 4-5% of isoflurane in 100% oxygen at a rate of 0.2-0.5 L/min or by the administration of 100 mg/kg Ketamine/10 mg/kg Xylazine mixture IP, after which, the endoscope was introduced via the anus and the colon was carefully insufflated with an air pump before analysis of the colonic mucosa. The endoscopic procedure was viewed on a color monitor and digitally recorded on tape. Colitis was scored according to the Murine endoscopic index of colitis severity (MEICS), considering differences in the thickness of the bowel wall, changes in blood vessel integrity, mucosal surface, stool consistency or the presence of fibrin, scored each between 0 and 3. The cumulative score ranged from 0 (no signs of inflammation) to 15 (signs of severe inflammation)^21.
Mice were treated with 1% (wt/vol) DSS for 6 days, followed by administration of either arginine 1% (wt/vol) solution (Sigma-Aldrich, St. Louis, Mo., catalogue number A8094) in drinking water, citrulline 1% (wt/vol) (L-citrulline, Chem-Impex International), NaNO2 100 mg (Sigma-Aldrich, St. Louis, Mo., catalogue number S2252), or water as control for additional 6 days.
Fisetin was given by intraperitoneal (i.p.) injection (1 mg/animal) in 30 μL of DMSO twice weekly. The control group was injected with 30 μL of DMSO twice weekly. Each group consisted of ten, 8-weeks old, male mice. Experiments were repeated three times.
Histopathology. On the day of sacrifice, colons were removed and their length was measured. Colon was fixed in 2.5% PFA solution overnight at 4° C., then embedded in paraffin, sectioned and stained with H&E. Tissues were examined in a blinded manner by a pathologist and scored on a 0-4 scale based on the parameters of inflammation severity^20.

C57BL/6J.OlaaHsd mice [2] = assay: as above; details: day 12
[3] = then arginine 1%, citrulline 1% or NaNO2 100 mg in drinking water 6 days vs water control, FIG. 3A
[4] = arginine, citrulline or NaNO2 vs water control, FIG. 3C
[5] = arginine, citrulline or NaNO2 vs water control
[6] = arginine, citrulline or NaNO2 vs water control, FIG. 3B

SMILES | As1 expression in distal colon sections (intestine, enterocytes) (As1) | induction of NO synthesis in enterocytes, citrulline compared with arginine (enterocytes; FIGS. 3I-J) | NO levels in enterocytes (colon epithelial cells) (enterocytes; after colitis induction, treated vs control, FIGS. 3F-J, 4F-I) | apoptosis in the intestine (intestine) | weight loss (C57BL/6J.OlaaHsd mice [1]; [3]) | weight loss (C57BL/6J.OlaaHsd mice [1]; then fisetin 1 mg IP twice, citrulline 1% in drinking water or both vs DMSO control, FIG. 4B) | effectiveness in alleviating colitis severity compared among arginine, citrulline and NO donor (C57BL/6J.OlaaHsd mice [1]; FIG. 3A-D) | colon length (C57BL/6J.OlaaHsd mice [1]; [4]) | Histology score for colitis (C57BL/6J.OlaaHsd mice [1]; [5]) | clinical improvement in colitis severity (C57BL/6J.OlaaHsd mice [1]; FIG. 3A-D) | colon length (C57BL/6J.OlaaHsd mice [1]; fisetin, citrulline or both vs DMSO control, FIG. 4D) | histological score (C57BL/6J.OlaaHsd mice [1]; fisetin, citrulline or both vs DMSO control, FIG. 4E) | endoscopic colitis score, citrulline in comparison to arginine (C57BL/6J.OlaaHsd mice [2]; FIG. 3B) | endoscopic colitis score (C57BL/6J.OlaaHsd mice [2]; [6]) | endoscopic colitis score (C57BL/6J.OlaaHsd mice [2]; fisetin, citrulline or both vs DMSO control, FIG. 4C)
NC(=O)NCCCC(N)C(=O)O (stereo not drawn) [citrulline, 2-Amino-5-(carbamoylamino)pentanoic acid] | upregulated; also recorded: more pronounce expression | more effective than arginine | increased generation of NO | decreased apoptosis; also recorded: increased apoptosis in the control intestine as compare to colon taken from mice treated with citrulline | significant weight loss reduction in the control group compared to the three treatments | significant weight loss is documented in the control group compared to the treated mice | the most effective | significant reduction in colon length in the control group as compared to the treated colons | significantly lower | significant clinical improvement | significant longer | significant reduction | more beneficial treatment | Significant improvement | significant improvement
O=N[O-].[Na+] [NaNO2] | reduced expression | – | – | – | significant weight loss reduction in the control group compared to the three treatments | – | – | significant reduction in colon length in the control group as compared to the treated colons | significantly lower | significant clinical improvement | – | – | – | Significant improvement | –
N=C(N)NCCC[C@H](N)C(=O)O [arginine] | upregulated | – | – | – | significant weight loss reduction in the control group compared to the three treatments | – | – | significant reduction in colon length in the control group as compared to the treated colons | significantly lower | significant clinical improvement | – | – | – | Significant improvement | –
